From PubChem BioAssay (NCI) come the findings set out here.

Values joined by “and” are separate entries in the source; they are usually repeats but may differ in a detail not shown here. Equal values may be shown once.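 Tested at 5 concentrations; 48 h exposure; 96-well plates; endpoints linearly interpolated, else capped at highest concentration. Here, GI50 denotes the concentration required for 50% inhibition of growth. TGI denotes the concentration required for complete inhibition of growth.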 Where only a bound is given, the exact number is not on record here.

Test in all cases: growth of human tumour cells (NCI), 48 h
Test [1] concerns CCRF-CEM leukemia.
Test [2] concerns COLO 205 colon.
Test [3] relates to HT29 colon.
Test [4] concerns NCI-H226 lung.
Test [5] concerns NCI-H460 lung.
Test [6] has as its system NCI/ADR-RES ovarian.
The test system of test [7] is OVCAR-5 ovarian.
Test [8] concerns SN12C renal.
The test system of test [9] is SNB-75 CNS.
Test [10] concerns SW-620 colon.

Take `Cc1c(-c2ccc(-c3ccccc3F)cc2)nc2ccc(F)cc2c1C(=O)O`: the GI50 in test [1] was 0.0742 µM and 0.557 µM; in test [2] it was 17.4 µM and 3.81 µM; in test [3], 0.639 µM and 0.5 µM; in test [4], 38.3 µM and 29.4 µM; in test [5] it was 0.349 µM and 0.5 µM; in test [6] it was 8.96 µM and 17.2 µM. In addition, the GI50 is 2.63 µM and 5.25 µM in test [8]; 36.7 µM and 81.6 µM in [9]; 0.488 µM and 1.16 µM in test [10]. For the same compound, the TGI in [1] is 190 µM and 684 µM; in test [2], 97.7 µM and 234 µM; in test [3], 142 µM and 235 µM; in [4], 216 µM and 209 µM; in test [5] it was 80.9 µM and 174 µM; in test [6] it was 170 µM and 377 µM. The TGI in test [7] was 209 µM and 371 µM; in [8], 80.6 µM and 280 µM; in test [9], 248 µM and 316 µM; in test [10], 139 µM and 577 µM.
With `COC(=O)N[C@@H](C)CNc1nccc(-c2cn(C(C)C)nc2-c2cc(Cl)cc(NS(C)(=O)=O)c2F)n1`, the GI50 in [1] was 38.2 µM; in [2], less than 0.01 µM; in test [3], less than 0.01 µM; in [4] it was greater than 100 µM; in [6], greater than 100 µM; in test [7], greater than 39.2 µM. Also, the figures for the GI50 in test [8], in test [9] and in test [10] were greater than 100 µM, 0.51 µM and 12.1 µM, respectively. Also, the TGI in [1], in test [2], in test [3], in [4], in test [6] and in test [7] was greater than 100 µM in each case. In addition, the TGI in test [8], in test [9] and in test [10] was greater than 100 µM throughout.
Consider `CCCCC[C@H]1C/C=C2/C(=O)C=C[C@@H]2C/C=C\CCCC(=O)O1`, for which the GI50 in test [1] is 0.106 µM; in [2], 0.113 µM; in [3], 0.128 µM; in [4] it was 0.0904 µM; in test [5], 0.156 µM; in [6], 0.181 µM. Also, the GI50 in [7] was 0.221 µM; in [8], 0.18 µM; in test [9], 0.227 µM; in [10], 0.177 µM. The TGI in test [1] came out at 5 µM; in test [2], 0.256 µM; in test [3] it was 0.278 µM; in [4], 0.18 µM; in test [5], 5.38 µM; in [6], 1.13 µM. In addition, the TGI in test [7] turned out to be 2.73 µM; in [8], 2.44 µM; in test [9] it was 1.98 µM; in [10], 1.06 µM.
In the case of `CC(C)C(Br)C(=O)NCC(=O)O` (stereo not given), the TGI in [1], in test [2], in test [3], in test [4], in test [5] and in test [6] was greater than 100 µM each time. Also, the TGI in [7], in test [8], in [9] and in [10] was greater than 100 µM in each case.
For `CC(=O)c1nc(-c2ccc(C[C@@H](CNC(=O)CN(C)C)NC(=O)c3ccc(OC(C)C)c(Cl)c3)cc2)cn1C`, the GI50 was 0.0447 µM in test [1]; 0.0292 µM in test [2]; 0.024 µM in test [3]; 12.6 µM in test [4]; 0.0291 µM in test [5]; 0.511 µM in test [6]. Moreover, the GI50 in test [7] was 0.0618 µM; in test [8], 0.0579 µM; in test [9], 0.0761 µM; in [10] it was 0.0663 µM. Also, the TGI in test [1] came out at 34.7 µM; in test [2], 3.84 µM; in test [3] it was 12.5 µM; in test [4] it was 33.9 µM; in [5] it was 11.8 µM; in test [6], 18.3 µM. The TGI in test [7] turned out to be 18.6 µM; in test [8], 17.1 µM; in test [9] it was 13.9 µM; in test [10], 20.4 µM.
Regarding `CCOC(=O)C(Cc1cc(OC)c(CC(C(=O)OCC)C(=O)OCC)cc1OC)C(=O)OCC`, the TGI in test [1], in [2], in test [3], in [4], in [5] and in test [6] was greater than 100 µM throughout. Also, the TGI in [7] was greater than 100 µM; in test [8] it was greater than 100 µM; in test [9] it was 57.6 µM; in [10], greater than 100 µM.
Consider `S=C(Nc1ccc(-c2nc3ccccc3s2)cc1)Nc1ccc(-c2nc3ccccc3s2)cc1`, for which the GI50 in test [1] was 18.4 µM; in [2], 27.4 µM; in test [3], 20.7 µM; in test [4], 14 µM; in test [5], 21 µM; in test [6] it was 22.5 µM. Also, the GI50 in test [7] was 20.1 µM; in test [8] it was 16.7 µM; in [9], 10.4 µM; in test [10], 23.7 µM. Further, the TGI in test [1] is 70.6 µM; in test [2], greater than 100 µM; in test [3] it was 55.9 µM; in test [4] it was 38.8 µM; in [5], 63.9 µM; in test [6], 52 µM. Further, the TGI stood at 48.8 µM in test [7], 44.5 µM in [8], 36.4 µM in [9] and 67.3 µM in [10].
Regarding `COc1c(OC2OC(C)C(O)C(O)C2O)c(OC)c2oc(-c3ccc(O)cc3)cc(=O)c2c1O` (stereo not given), the GI50 in test [1] is 31.4 µM; in test [2], 29.3 µM; in [3] it was 30 µM; in [4], 30.6 µM; in test [5], 27.7 µM; in test [6], 87.2 µM. Also, the GI50 in [7] was greater than 100 µM; in [8] it was 27.8 µM; in test [9], 20.6 µM; in test [10], 35.7 µM. Further, the TGI is greater than 100 µM in test [1]; greater than 100 µM in [2]; greater than 100 µM in test [3]; greater than 100 µM in [4]; 81.4 µM in test [5]; greater than 100 µM in [6]. Besides, the TGI was greater than 100 µM in test [7], greater than 100 µM in test [8], 87.1 µM in test [9] and greater than 100 µM in test [10].
As to `Cc1cc(C)c(-c2c(O)c(Br)c(-c3c(C)cc(C)c(Br)c3C)c(O)c2Br)c(C)c1Br`, the GI50 is 4.06 µM in [1]; 1.73 µM in test [2]; 2.34 µM in test [3]; 2.54 µM in test [4]; 2.16 µM in [5]; 2.88 µM in test [6]. For the same compound, the GI50 was 2.85 µM in test [7], 2.69 µM in test [8], 1.88 µM in [9] and 2.94 µM in test [10]. The TGI in test [1] is 20.2 µM; in test [2], 3.54 µM; in test [3], 10.2 µM; in test [4] it was 9.52 µM; in test [5], 6.5 µM; in [6], 10.7 µM. Also, the TGI in test [7] worked out at 9.63 µM; in test [8], 15 µM; in test [9] it was 10.3 µM; in [10], 12 µM.
For `CCCC(=O)Nc1cc(/C=C/C(=O)N2C[C@@H]3C[C@]34C2=CC(=O)c2[nH]cc(C)c24)n(C)c1`, the TGI was 0.131 µM and 0.267 µM in test [1]; 2.77 µM in test [3]; 3.76 µM in [4]; 2.51 µM and 0.394 µM in [5]; 6.38 µM and 4.77 µM in test [6]; 2.41 µM and 1.59 µM in test [8]. Further, the TGI was 1.21 µM and 0.248 µM in [9]; 25 µM in [10]. Also, the GI50 was 0.053 µM in test [5]; 0.946 µM in test [6]; 0.142 µM in test [7]; 0.064 µM in [8]; 0.061 µM in test [9].
In the case of `N#C/C(=C/C=C/c1cccc(Cl)c1)S(=O)c1ccccc1` (stereo not given), the GI50 in test [1] was 0.296 µM; in test [2], 0.386 µM; in test [4], 1.14 µM; in test [5], 0.474 µM; in [6], 0.278 µM; in [7] it was 0.391 µM. Also, the GI50 in [8] is 0.359 µM; in [9] it was 1.2 µM. Besides, the TGI in test [1] came to 1.21 µM; in test [2], 1.31 µM; in test [4], 3.68 µM; in test [5] it was 2.51 µM; in [6], 0.859 µM; in test [7], 1.7 µM. Also, the TGI was determined as 1.42 µM in test [8] and 3.82 µM in test [9].
Turning to `CN1C2C=CC(=O)C1C(C#N)C2` (stereo not given), the TGI in [1] is 82.7 µM and > 100 µM; in test [3], greater than 100 µM; in [4], greater than 100 µM; in [5], greater than 100 µM; in [6], greater than 100 µM; in test [7], 15.7 µM and > 100 µM. Further, the TGI in test [8] and in [10] was greater than 100 µM throughout. The GI50 in test [3] is 31.8 µM and 90.5 µM; in test [4], 97.7 µM.
On to `OC(Cc1cccc2ccccc12)CN1CCC(c2ccccc2)CC1` (stereo not given), for which the TGI in [1] came to 62.6 µM; in [2], 25.6 µM; in test [3] it was 25.8 µM; in [5], 28.4 µM; in [6], 28.5 µM; in test [7], 27.7 µM. Moreover, the TGI in test [8] came out at 30.6 µM; in test [9] it was 25.3 µM; in test [10], 29.9 µM.
Consider `CCCCS(=O)(=O)c1cc(Nc2ccc(O)c3c2C(=O)c2ccccc2C3=O)ccc1C`, for which the GI50 in test [1] is greater than 100 µM; in test [3] it was greater than 100 µM; in [4], greater than 100 µM; in test [5], 0.431 µM; in test [6], greater than 100 µM; in [7], greater than 100 µM. In addition, the GI50 in test [8] is greater than 100 µM; in test [9] it was 21.9 µM; in test [10], greater than 100 µM. For the same compound, the TGI in [1], in test [3], in test [4], in test [5], in test [6] and in test [7] was greater than 100 µM each time. Further, the TGI in test [8], in test [9] and in test [10] was greater than 100 µM each time.
As for `OC[C@H]1N[C@H](CO)[C@@H](O)[C@H]1O`, the TGI in [1], in test [2], in test [3], in test [4], in test [6] and in test [7] was greater than 100 µM each time. The TGI in test [8], in [9] and in test [10] was greater than 100 µM throughout.
Turning to `CCNc1ccc2c(c1)C(=O)N(OS(C)(=O)=O)C2=O`, the TGI was greater than 100 µM in [1]; greater than 100 µM in test [2]; greater than 100 µM in [3]; 97.1 µM in test [4]; greater than 100 µM in [5]; greater than 100 µM in test [6]. Moreover, the TGI in test [8] and in test [10] was greater than 100 µM in each case.
With `O=C1c2ccccc2-c2c1c1ccccc1c(=O)n2CCNCCNCCNCCNCCn1c2c(c3ccccc3c1=O)C(=O)c1ccccc1-2`, the GI50 is 0.125 µM in test [1]; 0.597 µM in test [2]; 0.0986 µM in [3]; 0.368 µM in test [4]; 0.0669 µM in test [5]; greater than 53 µM in test [6]. The GI50 in [7] is greater than 100 µM; in test [10] it was 0.0405 µM. Besides, the TGI in test [1] is 2.65 µM; in test [2] it was 3.94 µM; in [3], 4.07 µM; in test [4] it was 1.95 µM; in test [5], 1.99 µM; in [6] it was 96.9 µM. The TGI in test [7] was greater than 100 µM; in [10] it was 1.17 µM.
`O=C(O)C(Cc1ccccc1)N1C(=O)/C(=C/C(Cl)=C/c2ccc([N+](=O)[O-])cc2)SC1=S` (stereo not given): the GI50 in test [1] is 2.92 µM; in test [2], 2.45 µM; in test [3] it was 2.84 µM; in test [4], 1.58 µM; in test [6] it was 3.39 µM; in test [7] it was 2.82 µM. The GI50 in test [9] is 1.96 µM. For the same compound, the TGI is greater than 100 µM in [1]; 6.21 µM in test [2]; 8.47 µM in [3]; 3.27 µM in [4]; greater than 100 µM in [6]; 7.9 µM in test [7]. The compound further yielded a TGI in test [9] of 5.37 µM.
